Tests used:
[1] = target: T1, Gamma-aminobutyric acid receptor subunit alpha-6/beta-3/gamma-2 (Rattus norvegicus, UniProt P18508+P30191+P63079); experiment: (§1) Positive allosteric modulation of rat recombinant GABAA alpha6beta3alpha6-gamma2beta3 receptor expressed in Xenopus laevis oocytes assessed as increase in GABA-induced current amplitude at -80 mV holding potential in presence of GABA EC1 to 1.5 by two-electrode voltage-clamp assay; format: cell-based, Oocyte
[2] = target: T2, Gamma-aminobutyric acid receptor subunit alpha-6/beta-3/gamma-2 (Rattus norvegicus) (UniProt P18508+P30191+P63079); experiment: Positive allosteric modulation of rat recombinant GABAA alpha6beta3alpha6-gamma2beta3 receptor expressed in Xenopus laevis oocytes assessed as maximal efficacy at -80 mV holding potential at 30 uM in presence of GABA EC1 to 1.5 by two-electrode voltage-clamp assay; format: cell-based; settings: Oocyte, filed as positive allosteric modulator
[3] = target: T2, Gamma-aminobutyric acid receptor subunit alpha-6/beta-3/gamma-2 (Rattus norvegicus); experiment: Positive allosteric modulation of rat recombinant GABAA alpha6beta3alpha6-gamma2beta3 receptor expressed in Xenopus laevis oocytes assessed as maximal efficacy at -80 mV holding potential at 1 nM in presence of GABA EC1 to 1.5 by two-electrode voltage-clamp assay; format: cell-based; settings: Oocyte
[4] = target: T2, Gamma-aminobutyric acid receptor subunit alpha-6/beta-3/gamma-2 (Rattus norvegicus); experiment: Positive allosteric modulation of rat recombinant GABAA alpha6beta3alpha6-gamma2beta3 receptor expressed in Xenopus laevis oocytes assessed as maximal efficacy at -80 mV holding potential at 1 uM in presence of GABA EC1 to 1.5 by two-electrode voltage-clamp assay; format: cell-based; settings: Oocyte, filed as positive allosteric modulator
[5] = target: T2, Gamma-aminobutyric acid receptor subunit alpha-6/beta-3/gamma-2 (Rattus norvegicus); experiment: Positive allosteric modulation of rat recombinant GABAA alpha6beta3alpha6-gamma2beta3 receptor expressed in Xenopus laevis oocytes assessed as maximal current at -80 mV holding potential in presence of GABA EC1 to 1.5 by two-electrode voltage-clamp assay relative to control; format: cell-based; settings: Oocyte, filed as positive allosteric modulator
[6] = target: T2, Gamma-aminobutyric acid receptor subunit alpha-6/beta-3/gamma-2 (Rattus norvegicus); experiment: Positive allosteric modulation of rat recombinant GABAA alpha6beta3alpha6-gamma2beta3 receptor expressed in Xenopus laevis oocytes assessed as maximal efficacy at -80 mV holding potential at 300 nM in presence of GABA EC1 to 1.5 by two-electrode voltage-clamp assay; format: cell-based; settings: Oocyte, filed as positive allosteric modulator
[7] = target: T2, Gamma-aminobutyric acid receptor subunit alpha-6/beta-3/gamma-2 (Rattus norvegicus); experiment: Positive allosteric modulation of rat recombinant GABAA alpha6beta3alpha6-gamma2beta3 receptor expressed in Xenopus laevis oocytes assessed as maximal efficacy at -80 mV holding potential at 3 uM in presence of GABA EC1 to 1.5 by two-electrode voltage-clamp assay; format: cell-based; settings: Oocyte, filed as positive allosteric modulator
[8] = target: T2, Gamma-aminobutyric acid receptor subunit alpha-6/beta-3/gamma-2 (Rattus norvegicus); experiment: Positive allosteric modulation of rat recombinant GABAA alpha6beta3alpha6-gamma2beta3 receptor expressed in Xenopus laevis oocytes assessed as maximal efficacy at -80 mV holding potential at 3 nM in presence of GABA EC1 to 1.5 by two-electrode voltage-clamp assay; format: cell-based; settings: Oocyte
[9] = target: T2, Gamma-aminobutyric acid receptor subunit alpha-6/beta-3/gamma-2 (Rattus norvegicus); experiment: Positive allosteric modulation of rat recombinant GABAA alpha6beta3alpha6-gamma2beta3 receptor expressed in Xenopus laevis oocytes assessed as maximal efficacy at -80 mV holding potential at 10 nM in presence of GABA EC1 to 1.5 by two-electrode voltage-clamp assay; format: cell-based; settings: Oocyte
[10] = target: T2, Gamma-aminobutyric acid receptor subunit alpha-6/beta-3/gamma-2 (Rattus norvegicus); experiment: Positive allosteric modulation of rat recombinant GABAA alpha6beta3alpha6-gamma2beta3 receptor expressed in Xenopus laevis oocytes assessed as maximal efficacy at -80 mV holding potential at 10 uM in presence of GABA EC1 to 1.5 by two-electrode voltage-clamp assay; format: cell-based; settings: Oocyte, filed as positive allosteric modulator
[11] = target: T2, Gamma-aminobutyric acid receptor subunit alpha-6/beta-3/gamma-2 (Rattus norvegicus); experiment: Positive allosteric modulation of rat recombinant GABAA alpha6beta3alpha6-gamma2beta3 receptor expressed in Xenopus laevis oocytes assessed as maximal efficacy at -80 mV holding potential at 30 nM in presence of GABA EC1 to 1.5 by two-electrode voltage-clamp assay; format: cell-based; settings: Oocyte
[12] = target: T2, Gamma-aminobutyric acid receptor subunit alpha-6/beta-3/gamma-2 (Rattus norvegicus); experiment: Positive allosteric modulation of rat recombinant GABAA alpha6beta3alpha6-gamma2beta3 receptor expressed in Xenopus laevis oocytes assessed as maximal efficacy at -80 mV holding potential at 100 nM in presence of GABA EC1 to 1.5 by two-electrode voltage-clamp assay; format: cell-based; settings: Oocyte, filed as positive allosteric modulator
[13] = target: T1, Gamma-aminobutyric acid receptor subunit alpha-6/beta-3/gamma-2; experiment: as §1, with “potential under more potent phase” for “potential”; format: cell-based, Oocyte
[14] = target: T1, Gamma-aminobutyric acid receptor subunit alpha-6/beta-3/gamma-2; experiment: as §1, with “potential under less potent phase” for “potential”; format: cell-based, Oocyte
[15] = target: T2, Gamma-aminobutyric acid receptor subunit alpha-6/beta-3/gamma-2 (Rattus norvegicus); experiment: Positive allosteric modulation of rat recombinant GABAA alpha6beta3alpha6-gamma2beta3 receptor expressed in Xenopus laevis oocytes assessed as maximal current at -80 mV holding potential under more potent phase in presence of GABA EC1 to 1.5 by two-electrode voltage-clamp assay relative to control; format: cell-based; settings: Oocyte, filed as positive allosteric modulator
[16] = target: T2, Gamma-aminobutyric acid receptor subunit alpha-6/beta-3/gamma-2 (Rattus norvegicus); experiment: Positive allosteric modulation of rat recombinant GABAA alpha6beta3alpha6-gamma2beta3 receptor expressed in Xenopus laevis oocytes assessed as maximal current under less potent phase in presence of GABA EC1 to 1.5 by two-electrode voltage-clamp assay relative to control; format: cell-based; settings: Oocyte, filed as positive allosteric modulator
[17] = target: T3, Gamma-aminobutyric acid receptor subunit alpha-1/alpha-6/beta-3/gamma-2 (Rattus norvegicus) (UniProt P18508+P30191+P62813+P63079); experiment: Positive allosteric modulation of rat recombinant GABAA alpha6beta3alpha1-gamma2beta3 receptor expressed in Xenopus laevis oocytes assessed as maximal efficacy at -80 mV holding potential at 30 nM in presence of GABA EC1 to 1.5 by two-electrode voltage-clamp assay; format: cell-based; settings: Oocyte
[18] = target: T3, Gamma-aminobutyric acid receptor subunit alpha-1/alpha-6/beta-3/gamma-2 (Rattus norvegicus); experiment: Positive allosteric modulation of rat recombinant GABAA alpha6beta3alpha1-gamma2beta3 receptor expressed in Xenopus laevis oocytes assessed as maximal efficacy at -80 mV holding potential at 100 nM in presence of GABA EC1 to 1.5 by two-electrode voltage-clamp assay; format: cell-based; settings: Oocyte
[19] = target: T2, Gamma-aminobutyric acid receptor subunit alpha-6/beta-3/gamma-2 (Rattus norvegicus); experiment: Positive allosteric modulation of rat recombinant GABAA alpha6beta3gamma2 receptor expressed in Xenopus laevis oocytes assessed as potentiation of GABA-induced response under less potent current at -80 mV holding potential at 30 uM in presence of GABA EC1 to 1.5 by two-electrode voltage-clamp assay; format: cell-based; settings: Oocyte, filed as positive allosteric modulator
[20] = target: T4, Gamma-aminobutyric acid receptor subunit alpha-1/beta-3/gamma-2 (Rattus norvegicus) (UniProt P18508+P62813+P63079); experiment: Positive allosteric modulation of rat recombinant GABAA alpha1beta3alpha1-gamma2beta3 receptor expressed in Xenopus laevis oocytes assessed as maximal efficacy at -80 mV holding potential at 100 nM in presence of GABA EC1 to 1.5 by two-electrode voltage-clamp assay; format: cell-based; settings: Oocyte
[21] = target: T4, Gamma-aminobutyric acid receptor subunit alpha-1/beta-3/gamma-2 (Rattus norvegicus); experiment: Positive allosteric modulation of rat recombinant GABAA alpha1beta3alpha1-gamma2beta3 receptor expressed in Xenopus laevis oocytes assessed as maximal efficacy at -80 mV holding potential at 30 uM in presence of GABA EC1 to 1.5 by two-electrode voltage-clamp assay; format: cell-based; settings: Oocyte
[22] = target: T2, Gamma-aminobutyric acid receptor subunit alpha-6/beta-3/gamma-2 (Rattus norvegicus); experiment: Positive allosteric modulation of rat recombinant GABAA alpha6beta3gamma2 receptor expressed in Xenopus laevis oocytes assessed as potentiation of GABA-induced response under more potent current at -80 mV holding potential at 30 uM in presence of GABA EC1 to 1.5 by two-electrode voltage-clamp assay; format: cell-based; settings: Oocyte, filed as positive allosteric modulator
[23] = target: T4, Gamma-aminobutyric acid receptor subunit alpha-1/beta-3/gamma-2 (Rattus norvegicus); experiment: Positive allosteric modulation of rat recombinant GABAA alpha1beta3alpha1-gamma2beta3 receptor expressed in Xenopus laevis oocytes assessed as maximal efficacy at -80 mV holding potential at 300 nM in presence of GABA EC1 to 1.5 by two-electrode voltage-clamp assay; format: cell-based; settings: Oocyte
[24] = target: T3, Gamma-aminobutyric acid receptor subunit alpha-1/alpha-6/beta-3/gamma-2 (Rattus norvegicus); experiment: Positive allosteric modulation of rat recombinant GABAA alpha6beta3alpha1-gamma2beta3 receptor expressed in Xenopus laevis oocytes assessed as maximal efficacy at -80 mV holding potential at 30 uM in presence of GABA EC1 to 1.5 by two-electrode voltage-clamp assay; format: cell-based; settings: Oocyte, filed as positive allosteric modulator
[25] = target: T3, Gamma-aminobutyric acid receptor subunit alpha-1/alpha-6/beta-3/gamma-2 (Rattus norvegicus); experiment: Positive allosteric modulation of rat recombinant GABAA alpha6beta3alpha1-gamma2beta3 receptor expressed in Xenopus laevis oocytes assessed as maximal efficacy at -80 mV holding potential at 300 nM in presence of GABA EC1 to 1.5 by two-electrode voltage-clamp assay; format: cell-based; settings: Oocyte
[26] = target: T2, Gamma-aminobutyric acid receptor subunit alpha-6/beta-3/gamma-2 (Rattus norvegicus); experiment: Positive allosteric modulation of rat recombinant GABAA alpha6beta3gamma2 receptor expressed in Xenopus laevis oocytes assessed as potentiation of GABA-induced response under more potent current at -80 mV holding potential at 100 nM in presence of GABA EC1 to 1.5 by two-electrode voltage-clamp assay; format: cell-based; settings: Oocyte, filed as positive allosteric modulator
[27] = target: T4, Gamma-aminobutyric acid receptor subunit alpha-1/beta-3/gamma-2 (Rattus norvegicus); experiment: Positive allosteric modulation of rat recombinant GABAA alpha1beta3alpha1-gamma2beta3 receptor expressed in Xenopus laevis oocytes assessed as maximal efficacy at -80 mV holding potential at 30 nM in presence of GABA EC1 to 1.5 by two-electrode voltage-clamp assay; format: cell-based; settings: Oocyte
Oocyte = experiment: Positive allosteric modulation of rat recombinant GABAA alpha1beta3alpha1 receptor expressed in Xenopus laevis oocytes assessed as activation of maximal current at -80 mV holding potential in presence of GABA EC1 to 1.5 by two-electrode voltage-clamp assay; format: cell-based; settings: filed as positive allosteric modulator
[28] = filed as positive allosteric modulator

T1 sequence (P18508 whole entry): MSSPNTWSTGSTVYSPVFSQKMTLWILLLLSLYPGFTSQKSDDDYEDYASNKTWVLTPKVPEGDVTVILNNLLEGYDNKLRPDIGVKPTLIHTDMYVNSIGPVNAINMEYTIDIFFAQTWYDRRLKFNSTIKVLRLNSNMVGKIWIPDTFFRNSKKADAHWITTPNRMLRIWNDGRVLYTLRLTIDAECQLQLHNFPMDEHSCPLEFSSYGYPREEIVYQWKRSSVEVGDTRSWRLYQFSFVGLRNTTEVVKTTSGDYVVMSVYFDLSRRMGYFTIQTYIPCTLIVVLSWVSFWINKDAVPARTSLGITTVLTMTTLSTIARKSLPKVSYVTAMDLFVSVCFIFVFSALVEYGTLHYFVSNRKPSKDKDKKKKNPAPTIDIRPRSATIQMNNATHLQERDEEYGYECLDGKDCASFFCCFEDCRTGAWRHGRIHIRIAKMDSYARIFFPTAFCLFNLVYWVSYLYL
T1 sequence (P30191 whole entry): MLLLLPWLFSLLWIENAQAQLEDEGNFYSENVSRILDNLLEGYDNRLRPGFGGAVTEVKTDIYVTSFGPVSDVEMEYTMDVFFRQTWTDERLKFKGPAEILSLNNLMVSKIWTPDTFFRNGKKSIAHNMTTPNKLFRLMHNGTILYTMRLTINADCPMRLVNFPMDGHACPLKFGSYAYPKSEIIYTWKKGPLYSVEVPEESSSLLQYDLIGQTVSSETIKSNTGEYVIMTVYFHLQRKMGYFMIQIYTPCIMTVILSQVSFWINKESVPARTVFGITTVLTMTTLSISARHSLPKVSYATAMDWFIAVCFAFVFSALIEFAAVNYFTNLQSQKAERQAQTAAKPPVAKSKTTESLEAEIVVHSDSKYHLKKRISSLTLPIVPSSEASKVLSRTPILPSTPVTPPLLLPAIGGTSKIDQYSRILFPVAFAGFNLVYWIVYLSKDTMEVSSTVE
T1 sequence (P63079 whole entry): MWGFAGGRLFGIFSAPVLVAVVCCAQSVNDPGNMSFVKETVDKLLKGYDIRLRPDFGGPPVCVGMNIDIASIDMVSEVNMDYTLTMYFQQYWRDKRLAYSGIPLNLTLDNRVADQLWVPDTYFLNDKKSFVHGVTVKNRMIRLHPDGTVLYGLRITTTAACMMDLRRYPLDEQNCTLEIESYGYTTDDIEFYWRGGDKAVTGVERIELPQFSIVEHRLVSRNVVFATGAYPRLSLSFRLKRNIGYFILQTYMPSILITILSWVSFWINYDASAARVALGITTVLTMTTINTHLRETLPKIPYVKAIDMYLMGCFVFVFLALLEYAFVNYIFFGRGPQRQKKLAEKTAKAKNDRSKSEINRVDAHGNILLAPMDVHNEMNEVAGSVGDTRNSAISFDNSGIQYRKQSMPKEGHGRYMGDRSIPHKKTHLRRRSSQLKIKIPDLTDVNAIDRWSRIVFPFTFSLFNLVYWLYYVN

Compound | EC50 [1] [µM] | Efficacy [2] [%] | Efficacy [3] [%] | Efficacy [4] [%] | %max [5] [%] | Efficacy [6] [%] | Efficacy [7] [%] | Efficacy [8] [%] | Efficacy [9] [%] | Efficacy [10] [%] | Efficacy [11] [%] | Efficacy [12] [%] | EC50 [13] [µM] | EC50 [14] [µM] | Efficacy [11, 28] [%] | %max [15] [%] | %max [16] [%] | Efficacy [9, 28] [%] | Efficacy [17] [%] | Efficacy [24] [%] | also measured
C#Cc1ccc2c3nn(-c4ccc(OC)cc4)c(=O)c-3c[nH]c2c1 | 5 | 732 | 9 | 163 | 946 | 98 | 325 | 12 | 27 | 581 | 39 | 70 | – | – | – | – | – | – | – | – | –
COc1ccc(-n2nc3c4ccc(Cl)cc4[nH]cc-3c2=O)cc1 | – | 703 | 6 | 180 | – | 94 | 387 | 13 | 22 | 688 | – | 65 | 0.01 | 17 | 40 | 56 | 796 | – | – | – | –
COc1ccc(-n2nc3c4ccc(C)cc4[nH]cc-3c2=O)cc1 | 13 | 1310 | 25 | 234 | 2050 | 149 | 456 | 31 | – | 1020 | – | 100 | – | – | 60 | – | – | 40 | – | – | –
COc1ccc(-n2nc3c4ccc(C(C)=O)cc4[nH]cc-3c2=O)cc1 | – | 426 | 9 | 101 | – | 67 | 127 | 13 | 27 | 205 | 31 | 52 | 0.05 | 735 | – | 82 | 2210 | – | 3 | 338 | Efficacy [18]: 3%; Activity [19]: 80%; Efficacy [20]: 1%; Efficacy [21]: 10%; Activity [22]: 280%; Efficacy [23]: 1%; Efficacy [25]: 11%; Activity [26]: 62%; Efficacy [27]: 1%
COc1ccc(-n2nc3c4ccc(F)cc4[nH]cc-3c2=O)cc1 | – | 385 | 6 | 156 | – | 118 | 235 | 16 | 28 | 300 | – | 77 | 0.028 | 32 | 46 | 96 | 353 | – | – | – | –
CN1C(=O)CN=C(c2ccccc2)c2cc(Cl)ccc21 | – | – | – | – | – | – | – | – | – | – | – | – | – | – | – | – | – | – | – | – | Activity (Oocyte): 30 nanoampere
COc1ccc(-n2nc3c4ccccc4[nH]cc-3c2=O)cc1 | 9 | 1360 | – | 152 | 1480 | 63 | 214 | 1 | 8 | 751 | 19 | 57 | – | – | – | – | – | – | – | – | –
CCc1ccc2c3nn(-c4ccc(OC)cc4)c(=O)c-3c[nH]c2c1 | – | 1940 | 3 | 127 | – | 74 | 216 | 4 | 21 | 621 | 29 | 54 | 0.023 | 299 | – | 57 | 4980 | – | 5 | 1510 | Efficacy [18]: 5%; Efficacy [21, 28]: 1040%; Efficacy [25]: 7%
COc1ccc(-n2nc3c4ccc(OC)cc4[nH]cc-3c2=O)cc1 | – | 702 | 31 | 178 | – | 143 | 234 | – | – | 400 | – | 125 | 0.008 | 118 | 105 | 113 | 1630 | 75 | – | 446 | Efficacy [21, 28]: 71%; Efficacy [8, 28]: 59%
COc1ccc(-n2nc3c4ccc(C(F)(F)F)cc4[nH]cc-3c2=O)cc1 | – | 1370 | 13 | 147 | – | 100 | 216 | 23 | – | 590 | – | 83 | 0.013 | 100 | 62 | 49 | 2970 | 43 | 1 | 1570 | Efficacy [18]: 5%; Efficacy [20]: 14%; Efficacy [21, 28]: 851%; Efficacy [23]: 18%; Efficacy [25]: 10%; Efficacy [27]: 9%
